Reference: US20240168030A1, “DIRECT FLUORESCENT GLYCAN LABELING” (BIO-TECHNE CORPORATION, priority 2019, published 2024)

T1: ST3Gal1 (Homo sapiens, UniProt Q11201)
T1 construct: purchased R&D Systems (Bio-Techne, Minneapolis, MN)
T1 sequence (Q11201 1-340): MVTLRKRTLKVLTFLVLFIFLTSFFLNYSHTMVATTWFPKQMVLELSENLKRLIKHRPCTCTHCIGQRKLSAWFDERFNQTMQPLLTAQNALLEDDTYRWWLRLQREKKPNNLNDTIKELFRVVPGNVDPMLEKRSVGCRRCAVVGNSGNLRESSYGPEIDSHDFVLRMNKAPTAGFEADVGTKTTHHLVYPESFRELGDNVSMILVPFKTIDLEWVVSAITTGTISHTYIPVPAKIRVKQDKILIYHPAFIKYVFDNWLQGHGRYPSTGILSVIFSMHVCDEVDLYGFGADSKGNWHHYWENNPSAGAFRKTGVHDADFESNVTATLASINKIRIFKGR

T2: ST6GalNAc4 (Homo sapiens, UniProt Q9H4F1)
T2 construct: purchased R&D Systems (Bio-Techne, Minneapolis, MN)
T2 sequence (Q9H4F1 1-302): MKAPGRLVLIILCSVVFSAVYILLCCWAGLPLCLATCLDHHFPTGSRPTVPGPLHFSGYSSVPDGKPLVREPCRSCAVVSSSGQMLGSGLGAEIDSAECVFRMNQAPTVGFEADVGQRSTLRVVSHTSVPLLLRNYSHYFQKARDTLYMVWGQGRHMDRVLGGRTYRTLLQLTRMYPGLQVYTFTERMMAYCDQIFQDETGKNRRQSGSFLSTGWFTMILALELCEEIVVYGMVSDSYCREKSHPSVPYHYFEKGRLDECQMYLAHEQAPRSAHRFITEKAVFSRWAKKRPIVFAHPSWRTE

T3: ST3Gal2 (Homo sapiens, UniProt Q16842)
T3 construct: purchased R&D Systems (Bio-Techne, Minneapolis, MN)
T3 sequence (Q16842 1-350): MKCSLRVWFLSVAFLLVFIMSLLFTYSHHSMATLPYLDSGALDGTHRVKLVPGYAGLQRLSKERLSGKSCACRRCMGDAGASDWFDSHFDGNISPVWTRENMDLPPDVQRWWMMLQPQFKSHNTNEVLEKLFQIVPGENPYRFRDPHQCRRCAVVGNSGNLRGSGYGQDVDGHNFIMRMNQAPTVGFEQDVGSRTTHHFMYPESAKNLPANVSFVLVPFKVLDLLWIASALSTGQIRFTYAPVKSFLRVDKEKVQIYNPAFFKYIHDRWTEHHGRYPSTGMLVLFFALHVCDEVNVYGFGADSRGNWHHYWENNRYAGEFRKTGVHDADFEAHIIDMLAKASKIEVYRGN

T4: ST6GalNAc1 (Homo sapiens, UniProt Q9NSC7)
T4 construct: purchased R&D Systems (Bio-Techne, Minneapolis, MN)
T4 sequence (Q9NSC7 1-600): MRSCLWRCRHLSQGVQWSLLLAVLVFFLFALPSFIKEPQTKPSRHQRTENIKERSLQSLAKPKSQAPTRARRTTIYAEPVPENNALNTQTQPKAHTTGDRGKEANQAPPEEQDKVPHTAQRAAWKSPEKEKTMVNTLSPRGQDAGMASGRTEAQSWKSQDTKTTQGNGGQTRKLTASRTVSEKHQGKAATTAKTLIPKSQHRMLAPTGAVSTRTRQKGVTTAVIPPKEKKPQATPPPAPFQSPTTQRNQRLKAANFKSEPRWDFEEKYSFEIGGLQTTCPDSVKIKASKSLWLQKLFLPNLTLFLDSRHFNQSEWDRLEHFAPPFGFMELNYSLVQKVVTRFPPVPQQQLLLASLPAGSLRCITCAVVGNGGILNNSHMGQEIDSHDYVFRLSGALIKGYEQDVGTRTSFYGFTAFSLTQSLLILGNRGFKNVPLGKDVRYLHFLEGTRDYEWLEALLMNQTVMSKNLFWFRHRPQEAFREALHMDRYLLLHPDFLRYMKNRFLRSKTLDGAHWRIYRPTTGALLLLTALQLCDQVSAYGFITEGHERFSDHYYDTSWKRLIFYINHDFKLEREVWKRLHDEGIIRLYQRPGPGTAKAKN

T5: ST3Gal4 (Homo sapiens, UniProt Q11206)
T5 construct: purchased R&D Systems (Bio-Techne, Minneapolis, MN)
T5 sequence (Q11206 1-333): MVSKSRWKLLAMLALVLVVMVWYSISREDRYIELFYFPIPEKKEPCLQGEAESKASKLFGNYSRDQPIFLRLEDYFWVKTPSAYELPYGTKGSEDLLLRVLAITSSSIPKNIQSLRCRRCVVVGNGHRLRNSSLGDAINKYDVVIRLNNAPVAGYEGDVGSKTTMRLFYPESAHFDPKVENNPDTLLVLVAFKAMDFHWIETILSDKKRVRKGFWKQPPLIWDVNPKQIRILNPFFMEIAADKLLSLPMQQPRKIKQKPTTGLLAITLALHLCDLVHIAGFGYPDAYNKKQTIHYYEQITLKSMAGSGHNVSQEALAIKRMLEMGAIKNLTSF

T6: ST6GalNAc2 (Homo sapiens, UniProt Q9UJ37)
T6 sequence (Q9UJ37 1-374): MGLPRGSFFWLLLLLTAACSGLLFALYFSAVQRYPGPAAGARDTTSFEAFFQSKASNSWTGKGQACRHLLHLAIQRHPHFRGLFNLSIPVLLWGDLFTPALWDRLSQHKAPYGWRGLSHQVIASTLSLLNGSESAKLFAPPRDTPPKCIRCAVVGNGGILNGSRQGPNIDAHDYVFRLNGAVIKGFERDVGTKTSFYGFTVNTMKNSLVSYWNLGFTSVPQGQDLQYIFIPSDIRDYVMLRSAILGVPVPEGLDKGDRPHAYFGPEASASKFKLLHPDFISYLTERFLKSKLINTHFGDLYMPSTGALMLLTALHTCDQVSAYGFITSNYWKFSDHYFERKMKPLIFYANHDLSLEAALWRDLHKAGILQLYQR

T7: ST6Gal1 (Homo sapiens, UniProt P15907)
T7 construct: purchased R&D Systems (Bio-Techne, Minneapolis, MN)
T7 sequence (P15907 1-406): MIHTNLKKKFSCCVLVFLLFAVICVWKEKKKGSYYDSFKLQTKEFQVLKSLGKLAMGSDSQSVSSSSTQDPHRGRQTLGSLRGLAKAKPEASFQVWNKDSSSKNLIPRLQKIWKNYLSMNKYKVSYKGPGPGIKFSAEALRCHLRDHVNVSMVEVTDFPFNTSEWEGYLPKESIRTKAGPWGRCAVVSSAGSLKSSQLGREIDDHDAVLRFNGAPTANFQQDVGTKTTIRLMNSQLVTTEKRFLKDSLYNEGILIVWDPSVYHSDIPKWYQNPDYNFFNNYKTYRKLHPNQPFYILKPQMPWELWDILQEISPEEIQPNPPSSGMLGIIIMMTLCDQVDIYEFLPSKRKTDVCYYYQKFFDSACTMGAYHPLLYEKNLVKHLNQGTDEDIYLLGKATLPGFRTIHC

B1: FUCA1: a lysosomal enzyme that hydrolyze α-fucose residues from glycans (protein, UniProt P04066 32-466, looked up)
Tissue alpha-L-fucosidase: QPPRRYTPDWPSLDSRPLPAWFDEAKFGVFIHWGVFSVPAWGSEWFWWHWQGEGRPQYQRFMRDNYPPGFSYADFGPQFTARFFHPEEWADLFQAAGAKYVVLTTKHHEGFTNWPSPVSWNWNSKDVGPHRDLVGELGTALRKRNIRYGLYHSLLEWFHPLYLLDKKNGFKTQHFVSAKTMPELYDLVNSYKPDLIWSDGEWECPDTYWNSTNFLSWLYNDSPVKDEVVVNDRWGQNCSCHHGGYYNCEDKFKPQSLPDHKWEMCTSIDKFSWGYRRDMALSDVTEESEIISELVQTVSLGGNYLLNIGPTKDGLIVPIFQERLLAVGKWLSINGEAIYASKPWRVQWEKNTTSVWYTSKGSAVYAIFLHWPENGVLNLESPITTSTTKITMLGIQGDLKWSTDPDKGLFISLPQLPPSAVPAEFAWTIKLTGVK

Tests used:
ST3Gal1 = biological target: T1, ST3Gal1; experiment: Direct fluorescent glycan labeling (DFGL) with fluorophore-conjugated sialic acid by ST3Gal1; assay type: biochemical; parameters: key to Relative tolerance of the fluorophore by ST3Gal1: +++: indicated by + and − signs only; ++: indicated by + and − signs only; indicated by + and − signs only; indicated by + and − signs only; settings: fluorophore-conjugated sialic acid donor; acceptor Gal of Core-1 O-glycan; fluorescence intensity of labeled fetuin or asialofetuin in FIG. 2
ST6GalNAc4 = biological target: T2, ST6GalNAc4; experiment: DFGL with fluorophore-conjugated sialic acid by ST6GalNAc4; assay type: biochemical; parameters: key to Relative tolerance of the fluorophore by ST6GalNAc4: +++: indicated by + and − signs only; ++: indicated by + and − signs only; indicated by + and − signs only; indicated by + and − signs only; settings: for Relative tolerance of the fluorophore by ST6GalNAc4: fluorophore-conjugated sialic acid donor, acceptor O-GalNAc, with sialylated terminal Gal, FIG. 2
ST3Gal2 = biological target: T3, ST3Gal2; experiment: DFGL with fluorophore-conjugated sialic acid by ST3Gal2; assay type: biochemical; parameters: key: +++: indicated by + and − signs only; ++: indicated by + and − signs only; indicated by + and − signs only; indicated by + and − signs only; settings: fluorophore-conjugated sialic acid donor; acceptor Gal of Core-1 O-glycan; fluorescence intensity of labeled fetuin or asialofetuin in FIG. 2
ST6GalNAc1 = biological target: T4, ST6GalNAc1; experiment: DFGL with fluorophore-conjugated sialic acid by ST6GalNAc1; assay type: biochemical; parameters: key: +++: indicated by + and − signs only; ++: indicated by + and − signs only; indicated by + and − signs only; indicated by + and − signs only; settings: fluorophore-conjugated sialic acid donor; acceptor O-GalNAc, sialylation on terminal Gal is flexible; FIG. 2
ST3Gal4 = biological target: T5, ST3Gal4; experiment: DFGL with fluorophore-conjugated sialic acid by ST3Gal4; assay type: biochemical; parameters: key: +++: indicated by + and − signs only; ++: indicated by + and − signs only; indicated by + and − signs only; indicated by + and − signs only; settings: fluorophore-conjugated sialic acid donor; acceptor Gal of N-glycan; fluorescence intensity of labeled fetuin or asialofetuin in FIG. 2
ST6GalNAc2 = biological target: T6, ST6GalNAc2; experiment: DFGL with fluorophore-conjugated sialic acid by ST6GalNAc2; assay type: biochemical; parameters: key: +++: indicated by + and − signs only; ++: indicated by + and − signs only; indicated by + and − signs only; indicated by + and − signs only; settings: fluorophore-conjugated sialic acid donor; acceptor O-GalNAc, sialylation on terminal Gal is flexible; FIG. 2
ST6Gal1 = biological target: T7, ST6Gal1; experiment: DFGL with fluorophore-conjugated sialic acid by ST6Gal1; assay type: biochemical; parameters: key to Relative tolerance of the fluorophore by ST6Gal1: +++: indicated by + and − signs only; ++: indicated by + and − signs only; indicated by + and − signs only; indicated by + and − signs only; settings: fluorophore-conjugated sialic acid donor; acceptor Gal of N-glycan; fluorescence intensity of labeled fetuin or asialofetuin in FIG. 2
fetuin and asialofetuin = experiment: PNGase F and FUCA1 treatment of labeled fetuin and asialofetuin; assay type: biochemical, bovine; settings: Cy5, FIG. 18B
Experimental: FIG. 18A-FIG. 18B show characterization of the labeled glycans on fetuin (Fet) and asialofetuin (AF) with PNGase F and FUCA1. FIG. 18A. PNGase F treatment of the labeled samples. […] Fet was labeled by FUT7 (F7) with Alexa Fluor® 488 (blue). Labeled samples were then treated with PNGase F to release the glycans. FIG. 18B. Effect of FUCA1 on the labeling. Samples without or with FUCA1 treatment were labeled by the indicated enzymes with Cy5. All samples were separated on 15% SDS-PAGE and imaged by silver staining, TCE staining and fluorescent imaging as indicated. M, Western blot molecular marker.
For a typical labeling reaction, 1 μg to 5 μg target protein was mixed with 0.2 nmol fluorophore-conjugated GDP-fucose and 0.2 μg of a fucosyltransferase in 30μL 25 mM Tris pH 7.5, 10 mM MnCl2. The mixture was incubated at 37° C. for 30 minutes. […] To release labeled glycans from a glycoprotein, the sample was first denatured by heating at 95° C. for two minutes in the presence of 0.5% SDS and 80 mM β-mercaptoethanol and then renatured with 1% Triton X-100, and finally treated with PNGase F at 10:1 mass ratio at 37° C. for 20 minutes. To release glycans from antibody, a sample was directly treated with Endo S at 10:1 mass ratio at 37° C. for 20 minutes. All samples were separated by sodium dodecyl sulfate—polyacrylamide gel electrophoresis (SDS-PAGE) at volts/cm. […]

Row | Molecule | Relative tolerance of the fluorophore by ST3Gal1 (ST3Gal1) | Relative tolerance of the fluorophore by ST6GalNAc4 (ST6GalNAc4) | Relative tolerance of the fluorophore by ST3Gal2 (ST3Gal2) | Relative tolerance of the fluorophore by ST6GalNAc1 (ST6GalNAc1) | Relative tolerance of the fluorophore by ST3Gal4 (ST3Gal4) | Relative tolerance of the fluorophore by ST6GalNAc2 (ST6GalNAc2) | Relative tolerance of the fluorophore by ST6Gal1 (ST6Gal1) | Fluorophore preference of ST6GalNAc4 (ST6GalNAc4; Alexa Fluor® 555 over Cy5, FIG. 2) | Change of labeling on FUT7 labeled fetuin after the treatment (fetuin and asialofetuin)
1 | cytidine monophosphate activated Alexa-Fluor®488-conjugated sialic acid [CMP-AF488-SA] | + | + | +++ | ++ | + | − | +++ |  | 
2 | cytidine monophosphate activated Alexa-Fluor® 555-conjugated sialic acid [CMP-AF555-SA] | ++ | +++ | +++ | ++ | ++ | + | ++ | strong preference | 
3 | B1 |  |  |  |  |  |  |  |  | two-fold increase
